Test results taken from US20230416205A1, “COMPOUNDS, COMPOSITIONS, AND METHODS” (Denali Therapeutics Inc, priority 2020, published 2023).
Read-outs that look alike come from different tables or passages of the source.

System: NLRP3
Assay: IL-1β secretion assay in PMA-differentiated, LPS/nigericin-stimulated THP-1 cells (384-well, ELISA read-out)
Format: cell-based, human
Procedure, shortened: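 Secreted IL-1β quantified by capture ELISA from supernatants of PMA-differentiated THP-1 cells (30K per well). Sequence: LPS 25 ng/mL priming 2 h, compound 1 h, nigericin 2 h; dose-responses normalized between high (LPS plus 5 μM nigericin) and low (LPS alone) controls.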

[1] = Homo sapiens, THP-1, IL-1β secretion, PMA-differentiated THP-1 cells, LPS then nigericin stimulation, ELISA read at 450 nm, read-out: Activity
[2] = Table 4, IL-1β secretion, LPS/nigericin-stimulated THP-1 cells, read-out: IC50
[3] = Homo sapiens, THP-1, Table 4, IL-1β secretion, LPS/nigericin-stimulated THP-1 cells, read-out: IC50

SMILES | IC50 [1] [nM] | IC50 [2] [nM] | IC50 (IL-1β secretion, PMA-differentiated THP-1 cells, LPS then nigericin stimulation, ELISA read at 450 nm, read-out: Activity) [nM] | IC50 [3] [nM]
O=C(CN1CC(C(F)(F)F)c2cc(Br)ccc2C1=O)Nc1ncc(F)cn1 (single isomer, unassigned) [Example 299, 2-[6-bromo-1-oxo-4-(trifluoromethyl)-3,4-dihydroisoquinolin-2-yl]-N-(5-fluoropyrimidin-2-yl)acetamide] | < 10000 | 96 |  | 
O=C(CN1CC(C(F)(F)F)c2cc(Br)ccc2C1=O)Nc1ncc(F)cn1 (single isomer, unassigned) [Example 300, 2-[6-bromo-1-oxo-4-(trifluoromethyl)-3,4-dihydroisoquinolin-2-yl]-N-(5-fluoropyrimidin-2-yl)acetamide] |  | 3430 | < 10000 | 
O=C(CN1CC2(CC2)c2c(ccc(C3C[C@H]3F)c2F)C1=O)Nc1ncc(F)cn1 (single isomer, unassigned) [Example 303, 2-[5-fluoro-6-[(1r,2r)-2-fluorocyclopropyl]-1-oxospiro[3H-isoquinoline-4-1′-cyclopropane]-2-yl]-N-(5-fluoropyrimidin-2-yl)acetamide] |  |  |  | 1440
O=C(CN1CC2(CC2)c2c(ccc(C3C[C@H]3F)c2F)C1=O)Nc1ncc(F)cn1 (single isomer, unassigned) [Example 304, 2-[5-fluoro-6-[(1r,2r)-2-fluorocyclopropyl]-1-oxospiro[3H-isoquinoline-4-1′-cyclopropane]-2-yl]-N-(5-fluoropyrimidin-2-yl)acetamide] |  | 2560 |  | 
O=C(CN1CC2(CC2)c2c(ccc(C3C[C@@H]3F)c2F)C1=O)Nc1ncc(F)cn1 (single isomer, unassigned) [Example 305, 2-[5-fluoro-6-[(1r,2s)-2-fluorocyclopropyl]-1-oxospiro[3H-isoquinoline-4,1′-cyclopropane]-2-yl]-N-(5-fluoropyrimidin-2-yl)acetamide] |  |  |  | 662
O=C(CN1CC2(CC2)c2c(ccc(C3C[C@@H]3F)c2F)C1=O)Nc1ncc(F)cn1 (single isomer, unassigned) [Example 306, 2-[5-fluoro-6-[(1r,2s)-2-fluorocyclopropyl]-1-oxospiro[3H-isoquinoline-4,1′-cyclopropane]-2-yl]-N-(5-fluoropyrimidin-2-yl)acetamide] |  | 577 |  | 
O=C(CN1CC2(CC2(F)F)c2c(ccc(Br)c2F)C1=O)Nc1ncc(Cl)cn1 (single isomer, unassigned) [Example 317, 2-[6-bromo-1′,1′,5-trifluoro-1-oxospiro[3H-isoquinoline-4,2′-cyclopropane]-2-yl]-N-(5-chloropyrimidin-2-yl)acetamide] |  | 8510 |  | 
O=C(CN1CC2(CC2(F)F)c2c(ccc(Br)c2F)C1=O)Nc1ncc(Cl)cn1 (single isomer, unassigned) [Example 318, 2-[6-bromo-1′,1′,5-trifluoro-1-oxospiro[3H-isoquinoline-4,2′-cyclopropane]-2-yl]-N-(5-chloropyrimidin-2-yl)acetamide] |  | 8 |  | 
N#Cc1cnc(NC(=O)CN2CC3(CC3(F)F)c3c(ccc(Br)c3F)C2=O)nc1 (single isomer, unassigned) [Example 319, 2-[6-bromo-1′,1′,5-trifluoro-1-oxospiro[3H-isoquinoline-4,2′-cyclopropane]-2-yl]-N-(5-cyanopyrimidin-2-yl)acetamide] |  | 3050 |  | 
N#Cc1cnc(NC(=O)CN2CC3(CC3(F)F)c3c(ccc(Br)c3F)C2=O)nc1 (single isomer, unassigned) [Example 320, 2-[6-bromo-1′,1′,5-trifluoro-1-oxospiro[3H-isoquinoline-4,2′-cyclopropane]-2-yl]-N-(5-cyanopyrimidin-2-yl)acetamide] |  | 14 |  | 
O=C(CN1CC2(CC2(F)F)c2c(ccc(Br)c2F)C1=O)Nc1ncc(C(F)(F)F)cn1 (single isomer, unassigned) [Example 323, 2-[6-bromo-1′,1′,5-trifluoro-1-oxospiro[3H-isoquinoline-4,2′-cyclopropane]-2-yl]-N-[5-(trifluoromethyl)pyrimidin-2-yl]acetamide] |  | > 10000 |  | 
O=C(CN1CC2(CC2(F)F)c2c(ccc(Br)c2F)C1=O)Nc1ncc(C(F)(F)F)cn1 (single isomer, unassigned) [Example 324, 2-[6-bromo-1′,1′,5-trifluoro-1-oxospiro[3H-isoquinoline-4,2′-cyclopropane]-2-yl]-N-[5-(trifluoromethyl)pyrimidin-2-yl]acetamide] |  | 27 |  | 
CC1(O)CC(NC(=O)CN2CC3(CC3(F)F)c3c(ccc(Br)c3F)C2=O)C1 (single isomer, unassigned) [Example 325, N-(3-cis-hydroxy-3-methylcyclobutyl)-2-[6-bromo-1′,1′,5-trifluoro-1-oxospiro[3H-isoquinoline-4,2′-cyclopropane]-2-yl]acetamide] |  | > 1000 |  | 
CC1(O)CC(NC(=O)CN2CC3(CC3(F)F)c3c(ccc(Br)c3F)C2=O)C1 (single isomer, unassigned) [Example 326, N-(3-cis-hydroxy-3-methylcyclobutyl)-2-[6-bromo-1′,1′,5-trifluoro-1-oxospiro[3H-isoquinoline-4,2′-cyclopropane]-2-yl]acetamide] |  | 13 |  | 
CC1(O)CC(NC(=O)CN2C[C@@]3(C[C@@H]3F)c3cc(C(F)(F)F)ccc3C2=O)C1 (single isomer, unassigned) [Example 327, N-(3-cis-hydroxy-3-methylcyclobutyl)-2-[(2′s,4r)-2′-fluoro-1-oxo-6-(trifluoromethyl)spiro[3H-isoquinoline-4,1′-cyclopropane]-2-yl]acetamide] |  | > 1000 |  | 
CC1(O)CC(NC(=O)CN2C[C@@]3(C[C@@H]3F)c3cc(C(F)(F)F)ccc3C2=O)C1 (single isomer, unassigned) [Example 328, N-(3-cis-hydroxy-3-methylcyclobutyl)-2-[(2′s,4r)-2′-fluoro-1-oxo-6-(trifluoromethyl)spiro[3H-isoquinoline-4,1′-cyclopropane]-2-yl]acetamide] |  | 67 |  | 
O=C(CN1CC2(CC2)c2cc(Br)ccc2C1=O)N[C@@H]1C[C@H]2CC[C@@H]1O2 (stereo in doubt) [Example 17, 2-(6-bromo-1-oxospiro[3H-isoquinoline-4,1′-cyclopropane]-2-yl)-N-[(1S,2R,4R)-7-oxabicyclo[2.2.1]heptan-2-yl]acetamide] | < 10000 |  |  | 4190
CCC1CN(CC(=O)Nc2ncncc2F)C(=O)c2ccc(Br)cc21 (stereo not drawn) [Example 1, 2-(6-bromo-4-ethyl-1-oxo-3,4-dihydroisoquinolin-2(1H)-yl)-N-(5-fluoropyrimidin-4-yl)acetamide] | < 10000 |  |  | 1380
N#Cc1cnc(NC(=O)CN2CC3(CC3)c3cc(Br)ccc3C2=O)nc1 [Example 3] | < 10000 |  |  | 47
O=C(CN1CC2(CC2)c2cc(Br)ccc2C1=O)Nc1ncc(Cl)cn1 [Example 4] | < 10000 |  |  | 39
O=C(CN1CC2(CC2)c2cc(Br)ccc2C1=O)Nc1ncccn1 [Example 5] | < 10000 |  |  | 216
O=C(CN1CC2(CC2)c2cc(Br)ccc2C1=O)Nc1ncncc1F [Example 6] | < 10000 |  |  | 141
N#Cc1cnc(NC(=O)CN2CC3(CC3)c3cc(Br)ccc3C2=O)c(F)c1 [Example 7] | < 10000 |  |  | 350
O=C(CN1CC2(CC2)c2cc(Br)ccc2C1=O)Nc1ncc(Cl)cc1F [Example 8] | < 10000 |  |  | 216
O=C(CN1CC2(CC2)c2cc(Br)ccc2C1=O)Nc1ncc(C(F)(F)F)cc1F [Example 9] | < 10000 |  |  | 400
